Source: EP0753308A2, “Use of lactoferrin for therapy of acute or recurrent infectious diseases by streptococcus pyogenes or other intracellular gram positive pathogen bacteria” (priority 1995, dated 1997)

Legend:
S. pyogenes 95/1 = experiment: Invasion assay in HeLa cell monolayers (gentamicin protection, CFU of viable intracellular bacteria); assay type: cell-based, Streptococcus pyogenes; settings: control 5 x 10^5; for Internalized bacteria (CFU/ml): absence of lactoferrin
Description: (§1) Streptococcus pyogenes strain 95/1 was cultured in Todd-Hewitt broth (Difco lab.). Blood agar was used for counting coloning forming units (C.F.U.). Staphylococcus aureus strain 94/3 was cultured in Brain Hearth Infusion (BHI). Mannitol Salt Agar was used for C.F.U. counts. HeLa S3 human epitelial cells (derived from epithelioid carcinoma of human cervix) were grown as monolayers at 37°C in Eagle's MEM containing 1.2 g/l of NaCo3, 2 mM glutamine, 100 U/ml penicillin, 0.1 mg/ml streptomycin and 10% heat inactivated foetal calf serum in 5% CO2 on 24-well tissue culture clusters (costar) by loading 1 ml of a solution of 1.5x10^5 cells/ml.
(§2) Semiconfluent monolayers of HeLa cells were infected with a bacterial suspension (at a multiplicity of infection of 100 exponentially grown bacteria per cell) deriving from a bacterial subculture after an incubation at 37°C for 120 min in the presence and absence of lactoferrin added at no cytotoxic nor antibacterial concentrations. After the bacterial infection (2 h at 37°C ), the monolayer was five-fold carefully washed with fosfate buffered saline (PBS) and then fresh medium (MEM, Seromed) containing 200 ug/ml of gentamicin was added. This antibiotic is well known for its impossibility to penetrate into the eukaryotic cells and to exert its bactericidal effect only towards the extracellular bacteria (free or adhered to the cells). Alter 2 h incubation period at 37°C in gentamicin, the infected cells were whashed three times with PBS and lysed by the addition of cold 0.1% Triton-X 100.
The cellular lysate was diluited with PBS and plated on selective agar medium in order to determine viable intracellular bacteria.

S. aureus = experiment: as above; assay type: cell-based, Staphylococcus aureus; settings: proteins 1 mg/ml; erythromycin 0.02 mg/ml where present; control 7 x 10^5
Description: as §1
as §2, with “Alter 2 h incubation period at 37°C in gentamicin, the infected cells were whashed three times with PBS and lysed by the addition of cold 0.1% Triton-X 100.” left out

| SMILES | Internalized bacteria (CFU/ml) (S. pyogenes 95/1; bacteria cultured with subinhibiting antibiotic 0.1 ug/ml) | Internalized bacteria (CFU/ml) (S. pyogenes 95/1; bacteria cultured with subinhibiting antibiotic 20 ug/ml) | Intracellular bacteria (CFU/ml S. pyogenes) (S. pyogenes 95/1; proteins 1 mg/ml, erythromycin 0.02 mg/ml where present) | Intracellular bacteria (CFU/ml S. aureus) (S. aureus) |
| --- | --- | --- | --- | --- |
| CC1(C)S[C@@H]2[C@H](NC(=O)[C@H](N)c3ccccc3)C(=O)N2[C@H]1C(=O)O [Ampicillin, ampicillin] | 2 x 10^5 CFU/ml | – | – | – |
| CC[C@H]1OC(=O)[C@H](C)[C@@H](O[C@H]2C[C@@](C)(OC)[C@@H](O)[C@H](C)O2)[C@H](C)[C@@H](O[C@@H]2O[C@H](C)C[C@H](N(C)C)[C@H]2O)[C@](C)(O)C[C@@H](C)C(=O)[C@H](C)[C@@H](O)[C@]1(C)O [Erythromycin, erythromycin] | – | 2 x 10^5 CFU/ml | 2 x 10^5 CFU/ml | 3 x 10^5 CFU/ml |
